Like-named read-outs stand apart in the source and are kept apart here. Starred links: 1 amine or outer side, 2 acyl side, 3 side chain; linkers in the order of their positions; H or OH if unused. Non-standard residues stand in square brackets, D forms with d. Residues, ends and D or L forms follow the SMILES beside them. NHCH2(1,3-C6H4)CH2CO = O=C(Cc1cccc(CN[*:1])c1)[*:2]; NH(CH2)9CO = O=C(CCCCCCCCCN[*:1])[*:2]; Ac6c = NC1(C(=O)O)CCCCC1; Orn = NCCC[C@H](N)C(=O)O; Dab = NCC[C@H](N)C(=O)O; Nva = CCC[C@H](N)C(=O)O; Abu = CC[C@H](N)C(=O)O; Dap = NC[C@H](N)C(=O)O; Ac3c = NC1(C(=O)O)CC1; Aib = CC(C)(N)C(=O)O; Ahp = NCCCCCCC(=O)O; GABA = NCCCC(=O)O

For the test, the target named is T1, recombinant human vWF-A1 domain (Homo sapiens, UniProt P07359).
T1 construct: whole blood drawn from voluntary donors; made in house; host or cells: E. coli (vWF-A1); washed platelets from human donor blood (GPIb, endogenous)
Kind of test: Static human platelet adhesion to recombinant human vWF-A1 domain. In kind it is cell-based. The protocol: The activity of compounds of the formula I can be shown by procedures known in the art, for example by determining their inhibition of the binding of platelets to vWF A1 domain in an appropriate assay. To this end, assay plates can be coated with vWF-A1 domain. […] Then fluorescence-labeled thrombocytes are added and incubated for 90 minutes. In a complex washing procedure all non-bound thrombocytes are removed and the plates are measured, for example in a laser-based reader Acumen Explorer or a bulk reader like Spectramax. […] To assess the effect of compounds on the interaction of the GPIb complex on platelets with vWF, an assay system was used measuring binding of human platelets to recombinant human vWF-A1 domain under static conditions in the presence and absence of the compounds. […] Platelet rich plasma was carefully removed, transferred to a fresh container and spun down for 15 min at 120 g. Platelet rich plasma was carefully transferred again to fresh containers, PGE1 (0.5 μg/ml, Sigma) was added and the suspension was allowed to rest for 5 min. This was followed by another centrifugation step for 15 min at 360 g. The supernatant was discarded and the cell pellets were carefully resuspended in tyrode buffer (NaCl, 137 mM (Sigma S-3014); KCl, 2.7 mM (Sigma P-9541); NaHCO3,12 mM ([…] 31437); NaH2PO4×2H2O, 0.36 mM (Merck 6345); […] After 5 min of resting the suspension was spun down for 15 min at 300 g. The supernatant was discarded and the pellets were carefully resuspended in TBS buffer (Tris-HCl, 50 mM (Fluka 93371); NaCl, 120 mM (Sigma S-3014); KCl, 2.7 mM (Sigma P-9541); CaCl2, 0.05 mM (Sigma C-3306); MgCl2×6 H2O, 2 mM (Sigma M-2670); […] The platelet count was adjusted to 2×10^5 cells/μl, and the suspensions from individual donors were pooled at this stage. The platelets were allowed to rest for 30 min at room temperature before calcein AM (2.5 μM per 2×10^5 cells/μl (Molecular Probes C-3099)) was added. This was followed by 15 min incubation in the dark. Cells were diluted to 5×10^4 cells/μl and ReoPro (3 μg/ml (Centocor B. V., Leiden, N L)) was added, followed by a 10 min incubation period in the dark before adding the platelets to the assay plates. 96 well plates (Greiner hb, black, clear bottom, F, 655097) were coated with human recombinant vWF-A1 domain (1.5 μg/well, AA 475-706, expressed in E. coli) in Tris buffer (pH 7.4; Tris-HCl, 25 mM; NaCl, 150 mM) and incubated for 1 h at room temperature. After washing the wells 3× with TBS, blocking buffer (TBS with 5% BSA) was added followed by an incubation for 1 h. The wells were washed again 3× with TBS before 200 μl TBS were added to each well, preventing them from drying out. TBS was flicked out and serial dilutions of the test compound were added. The washed and calcein AM labeled thrombocytes were added to the wells (2.5×10^6 cells/well). Following an adhesion period of 1.5 h in the dark the wells were washed 3× with TBS. Measurement of fluorescence per well was performed in a SpectraMax M5 reader (Molecular Devices). From the raw data % inhibition and IC50 values were calculated.

[1] abbreviates: washed calcein AM labeled human platelets, static conditions, 1.5 h adhesion, read-out: Activity (IC50 for inhibition of the binding of platelets to vWF A1 domain).

T1 sequence (P07359 17-652): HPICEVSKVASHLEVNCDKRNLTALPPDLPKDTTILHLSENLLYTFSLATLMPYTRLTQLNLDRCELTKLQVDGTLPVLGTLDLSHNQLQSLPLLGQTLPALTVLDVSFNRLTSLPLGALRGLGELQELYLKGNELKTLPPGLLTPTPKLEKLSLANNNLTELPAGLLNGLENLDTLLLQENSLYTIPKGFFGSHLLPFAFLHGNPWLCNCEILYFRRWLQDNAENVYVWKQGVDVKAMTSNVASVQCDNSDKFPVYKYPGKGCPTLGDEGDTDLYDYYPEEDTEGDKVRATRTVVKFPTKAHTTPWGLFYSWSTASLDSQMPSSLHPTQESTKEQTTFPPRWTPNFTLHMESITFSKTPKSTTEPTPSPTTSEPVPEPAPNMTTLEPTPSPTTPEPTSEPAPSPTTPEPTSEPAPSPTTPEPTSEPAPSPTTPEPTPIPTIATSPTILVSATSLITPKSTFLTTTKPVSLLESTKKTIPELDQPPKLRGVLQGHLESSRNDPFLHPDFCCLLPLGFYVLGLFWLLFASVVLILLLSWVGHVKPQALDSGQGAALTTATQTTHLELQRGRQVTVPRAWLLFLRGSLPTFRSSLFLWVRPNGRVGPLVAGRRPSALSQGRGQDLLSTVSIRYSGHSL
T1 sequence (P13224 26-206 partner): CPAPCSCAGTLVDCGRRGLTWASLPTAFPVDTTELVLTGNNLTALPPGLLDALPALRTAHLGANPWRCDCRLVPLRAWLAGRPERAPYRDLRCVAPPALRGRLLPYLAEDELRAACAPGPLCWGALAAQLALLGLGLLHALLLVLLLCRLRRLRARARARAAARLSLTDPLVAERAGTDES
T1 sequence (P14770 17-177 partner): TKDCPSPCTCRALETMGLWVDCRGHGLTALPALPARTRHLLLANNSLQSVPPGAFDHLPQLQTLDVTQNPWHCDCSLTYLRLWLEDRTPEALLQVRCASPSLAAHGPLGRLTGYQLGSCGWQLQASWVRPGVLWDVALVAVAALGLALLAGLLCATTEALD

The IC50 is the concentration needed to halve the response being measured. `CC[C@H](C)[C@@H]1NC(=O)[C@H](CCCNC(=N)N)NC(=O)[C@H](CCC(=O)O)NC(=O)[C@H]([C@@H](C)O)NC(=O)CCCCCCNC(=O)[C@H](CC(C)C)NC(=O)[C@H](CC(N)=O)NC(=O)[C@H](Cc2c[nH]cn2)NC(=O)[C@H](CC(C)C)NC(=O)[C@H](C)NC1=O` [Example 18, Cyclo[Leu-His-Asn-Leu-NH—(CH2)6—CO-Thr-Glu-Arg-Ile-Ala]] (cyclo(ALHNL[Ahp]TERI)): the IC50 under setting [1] was 1000 to 10000 nM. Regarding `CC[C@@H]1NC(=O)[C@H](CCCNC(=N)N)NC(=O)[C@H](CCC(=O)O)NC(=O)[C@H]([C@@H](C)O)NC(=O)CCCCCCNC(=O)[C@H](CC(C)C)NC(=O)[C@H](CC(N)=O)NC(=O)[C@H](Cc2c[nH]cn2)NC(=O)[C@H](CC(C)C)NC(=O)[C@H](C)NC1=O` [Example 42, Cyclo[Leu-His-Asn-Leu-NH—(CH2)6—CO-Thr-Glu-Arg-Abu-Ala]] (cyclo(ALHNL[Ahp]TER[Abu])), under setting [1], the 50% inhibitory concentration (IC50) was less than 1000 nM. On to `CSCC[C@@H]1NC(=O)[C@H](CCCNC(=N)N)NC(=O)[C@H](CCC(=O)O)NC(=O)[C@H](CCN)NC(=O)CCCCCCNC(=O)[C@H](CC(C)C)NC(=O)[C@H](CC(N)=O)NC(=O)[C@H](Cc2c[nH]cn2)NC(=O)[C@H](CC(C)C)NC(=O)[C@H](C)NC1=O` [Example 24, Cyclo[Leu-His-Asn-Leu-NH—(CH2)6—CO-Dbu-Glu-Arg-Met-Ala]] (cyclo(ALHNL[Ahp][Dab]ERM)), for which, under setting [1], the IC50 was less than 1000 nM. In the case of `CSCC[C@@H]1NC(=O)[C@H](CCCNC(=N)N)NC(=O)[C@H](CCC(=O)O)NC(=O)[C@H]([C@@H](C)O)NC(=O)CCCCCCNC(=O)[C@H](CC(C)C)NC(=O)[C@H](CC(N)=O)NC(=O)[C@H](Cc2c[nH]cn2)NC(=O)[C@H](CC(C)C)NC(=O)[C@H](CCCNC(=N)N)NC1=O` [Example 30, Cyclo[Leu-His-Asn-Leu-NH—(CH2)6—CO-Thr-Glu-Arg-Met-Arg]] (cyclo([Ahp]TERMRLHNL)), the IC50 under setting [1] was 1000 to 10000 nM. On the same count and under the same terms, the result for `CSCC[C@@H]1NC(=O)[C@H](CCCN)NC(=O)[C@H](CCC(=O)O)NC(=O)[C@H]([C@@H](C)O)NC(=O)CCCCCCNC(=O)[C@H](CC(C)C)NC(=O)[C@H](CC(N)=O)NC(=O)[C@H](Cc2c[nH]cn2)NC(=O)[C@H](CC(C)C)NC(=O)[C@H](C)NC1=O` [Example 28, Cyclo[Leu-His-Asn-Leu-NH—(CH2)6—CO-Thr-Glu-Orn-Met-Ala]] (cyclo(ALHNL[Ahp]TE[Orn]M)) reads less than 1000 nM; that for `CSCC[C@@H]1NC(=O)[C@H](CCCNC(=N)N)NC(=O)[C@H](CCC(=O)O)NC(=O)[C@H]([C@@H](C)O)NC(=O)C(C)(C)NC(=O)CCCNC(=O)[C@H](CC(C)C)NC(=O)[C@H](CC(N)=O)NC(=O)[C@H](Cc2c[nH]cn2)NC(=O)[C@H](CC(C)C)NC(=O)[C@H](C)NC1=O` [Example 53, Cyclo[Leu-His-Asn-Leu-NH—(CH2)3—CO-Aib-Thr-Glu-Arg-Met-Ala]] (cyclo(ALHNL[GABA][Aib]TERM)), 1000 to 10000 nM. Same read-out and setting: next, `CSCC[C@@H]1NC(=O)[C@H](CCCNC(=N)N)NC(=O)[C@H](CCC(=O)O)NC(=O)[C@H]([C@@H](C)O)NC(=O)CCCCCCNC(=O)[C@H](CC(C)C)NC(=O)[C@H](CC(N)=O)NC(=O)[C@H](CCCN)NC(=O)[C@H](CC(C)C)NC(=O)[C@H](C)NC1=O` [Example 34, Cyclo[Leu-Orn-Asn-Leu-NH—(CH2)6—CO-Thr-Glu-Arg-Met-Ala]] (cyclo(AL[Orn]NL[Ahp]TERM)): 1000 to 10000 nM; `CCC[C@@H]1NC(=O)[C@H](CCSC)NC(=O)[C@H](CCCNC(=N)N)NC(=O)[C@H](CCC(=O)O)NC(=O)[C@H]([C@@H](C)O)NC(=O)CCCCCCNC(=O)[C@H](CC(C)C)NC(=O)[C@H](CC(N)=O)NC(=O)[C@H](Cc2c[nH]cn2)NC(=O)[C@H](CC(C)C)NC1=O` [Example 31, Cyclo[Leu-His-Asn-Leu-NH—(CH2)6—CO-Thr-Glu-Arg-Met-Nva]] (cyclo([Ahp]TERM[Nva]LHNL)): 1000 to 10000 nM; `CSCC[C@@H]1NC(=O)[C@H](CCCNC(=N)N)NC(=O)[C@H](CCC(=O)O)NC(=O)[C@H]([C@@H](C)O)NC(=O)CCCCCCCCCNC(=O)[C@H](CC(C)C)NC(=O)[C@H](CC(N)=O)NC(=O)[C@H](Cc2c[nH]cn2)NC(=O)[C@H](CC(C)C)NC(=O)[C@H](C)NC1=O` [Example 47, Cyclo[Leu-His-Asn-Leu-NH—(CH2)9—CO-Thr-Glu-Arg-Met-Ala]] (cyclo(ALHNL[NH(CH2)9CO]TERM)): 1000 to 10000 nM. Same read-out and setting: the result for `CSCC[C@@H]1NC(=O)[C@H](CCCNC(=N)N)NC(=O)[C@H](CCC(=O)O)NC(=O)[C@H]([C@@H](C)O)NC(=O)CCCCCCNC(=O)[C@H](CC(C)C)NC(=O)[C@H](CC(N)=O)NC(=O)[C@H](Cc2c[nH]cn2)NC(=O)C2(CCCCC2)NC(=O)[C@H](C)NC1=O` [Example 37, Cyclo[Ac6-His-Asn-Leu-NH—(CH2)6—CO-Thr-Glu-Arg-Met-Ala]] (cyclo(A[Ac6c]HNL[Ahp]TERM)) reads 1000 to 10000 nM. `CSCC[C@@H]1NC(=O)[C@H](CCCNC(=N)N)NC(=O)[C@H](CCC(=O)O)NC(=O)[C@H](CC(N)=O)NC(=O)CCCCCCNC(=O)[C@H](CC(C)C)NC(=O)[C@H](CC(N)=O)NC(=O)[C@H](Cc2c[nH]cn2)NC(=O)[C@H](CC(C)C)NC(=O)[C@H](C)NC1=O` [Example 22, Cyclo[Leu-His-Asn-Leu-NH—(CH2)6—CO-Asn-Glu-Arg-Met-Ala]] (cyclo(ALHNL[Ahp]NERM)): the IC50 under setting [1] was less than 1000 nM.

Take `CSCC[C@@H]1NC(=O)[C@H](CCCNC(=N)N)NC(=O)[C@H](CCC(=O)O)NC(=O)[C@H]([C@@H](C)O)NC(=O)CCCCCCNC(=O)[C@H](CC(C)C)NC(=O)[C@H](CC(N)=O)NC(=O)[C@H](Cc2c[nH]cn2)NC(=O)[C@H](CC(C)C)NC(=O)[C@H](CN)NC1=O` [Example 32, Cyclo[Leu-His-Asn-Leu-NH—(CH2)6—CO-Thr-Glu-Arg-Met-Dpr]] (cyclo([Ahp]TERM[Dap]LHNL)): the IC50 under setting [1] is less than 1000 nM. As for `CSCC[C@@H]1NC(=O)[C@H](CCCNC(=N)N)NC(=O)[C@H](CCC(=O)O)NC(=O)[C@H]([C@@H](C)O)NC(=O)C2(CC2)NC(=O)CCCNC(=O)[C@H](CC(C)C)NC(=O)[C@H](CC(N)=O)NC(=O)[C@H](Cc2c[nH]cn2)NC(=O)[C@H](CC(C)C)NC(=O)[C@H](C)NC1=O` [Example 54, Cyclo[Leu-His-Asn-Leu-NH—(CH2)3—CO-Ac3-Thr-Glu-Arg-Met-Ala]] (cyclo(ALHNL[GABA][Ac3c]TERM)), the IC50 under setting [1] is 1000 to 10000 nM. In the case of `CSCC[C@@H]1NC(=O)[C@H](CCCNC(=N)N)NC(=O)[C@H](CCC(=O)O)NC(=O)[C@H](CCC(N)=O)NC(=O)CCCCCCNC(=O)[C@H](CC(C)C)NC(=O)[C@H](CC(N)=O)NC(=O)[C@H](Cc2c[nH]cn2)NC(=O)[C@H](CC(C)C)NC(=O)[C@H](C)NC1=O` [Example 25, Cyclo[Leu-His-Asn-Leu-NH—(CH2)6—CO-Gln-Glu-Arg-Met-Ala]] (cyclo(ALHNL[Ahp]QERM)), the IC50 under setting [1] is less than 1000 nM. In the case of `CSCC[C@@H]1NC(=O)[C@H](CCCNC(=N)N)NC(=O)[C@H](CCC(=O)O)NC(=O)[C@H]([C@@H](C)O)NC(=O)Cc2cccc(c2)CNC(=O)[C@H](CC(C)C)NC(=O)[C@H](CC(N)=O)NC(=O)[C@H](Cc2c[nH]cn2)NC(=O)[C@H](CC(C)C)NC(=O)[C@H](C)NC1=O` [Example 2, Cyclo[Leu-His-Asn-Leu-NH-X4-X3-X2-X1-CO-Thr-Glu-Arg-Met-Ala]] (cyclo(ALHNL[NHCH2(1,3-C6H4)CH2CO]TERM)), the IC50 was less than 1000 nM.
